Results reported in ChEMBL document CHEMBL6177998, “Rational Design of Dual Degraders by Incorporating Molecular Glue Structural Features into PROTAC Degraders” (J Med Chem, 2025).
Calls of active or inactive are those of the source. No cut-off for these calls is given here.

What was measured:
[1] = biological target: T1, Protein cereblon/Androgen receptor (Homo sapiens, UniProt P10275+Q96SW2); assay: PROTAC activity at CRBN/AR in human VCaP cells assessed as induction of AR degradation at 0.01 uM incubated for 24 hrs by Western blot analysis relative to control; assay type: cell-based
Target sequence in this assay (P10275 whole entry, looked up): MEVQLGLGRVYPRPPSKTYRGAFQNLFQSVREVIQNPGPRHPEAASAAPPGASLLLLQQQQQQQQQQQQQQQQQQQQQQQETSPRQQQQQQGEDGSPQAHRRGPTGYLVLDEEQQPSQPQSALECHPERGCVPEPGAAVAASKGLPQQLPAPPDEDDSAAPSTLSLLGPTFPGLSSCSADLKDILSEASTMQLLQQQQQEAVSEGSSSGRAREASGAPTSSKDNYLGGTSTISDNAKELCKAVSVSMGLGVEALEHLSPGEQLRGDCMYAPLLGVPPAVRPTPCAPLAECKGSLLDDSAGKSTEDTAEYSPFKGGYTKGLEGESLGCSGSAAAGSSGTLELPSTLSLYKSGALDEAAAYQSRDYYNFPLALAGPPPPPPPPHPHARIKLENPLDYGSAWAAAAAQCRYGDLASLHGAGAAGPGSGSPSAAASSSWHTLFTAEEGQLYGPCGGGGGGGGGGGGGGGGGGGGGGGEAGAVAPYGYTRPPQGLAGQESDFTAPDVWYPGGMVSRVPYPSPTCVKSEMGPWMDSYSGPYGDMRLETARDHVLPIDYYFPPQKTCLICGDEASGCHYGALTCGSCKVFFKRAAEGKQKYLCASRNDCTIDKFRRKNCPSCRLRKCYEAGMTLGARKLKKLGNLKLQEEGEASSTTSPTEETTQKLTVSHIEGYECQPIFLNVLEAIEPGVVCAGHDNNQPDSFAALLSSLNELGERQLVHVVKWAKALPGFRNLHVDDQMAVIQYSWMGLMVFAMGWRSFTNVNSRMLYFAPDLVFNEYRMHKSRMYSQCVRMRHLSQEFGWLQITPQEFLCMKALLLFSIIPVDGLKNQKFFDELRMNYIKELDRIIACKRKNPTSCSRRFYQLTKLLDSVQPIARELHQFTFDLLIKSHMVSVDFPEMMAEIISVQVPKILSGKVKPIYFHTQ
Target sequence in this assay (Q96SW2 whole entry, looked up): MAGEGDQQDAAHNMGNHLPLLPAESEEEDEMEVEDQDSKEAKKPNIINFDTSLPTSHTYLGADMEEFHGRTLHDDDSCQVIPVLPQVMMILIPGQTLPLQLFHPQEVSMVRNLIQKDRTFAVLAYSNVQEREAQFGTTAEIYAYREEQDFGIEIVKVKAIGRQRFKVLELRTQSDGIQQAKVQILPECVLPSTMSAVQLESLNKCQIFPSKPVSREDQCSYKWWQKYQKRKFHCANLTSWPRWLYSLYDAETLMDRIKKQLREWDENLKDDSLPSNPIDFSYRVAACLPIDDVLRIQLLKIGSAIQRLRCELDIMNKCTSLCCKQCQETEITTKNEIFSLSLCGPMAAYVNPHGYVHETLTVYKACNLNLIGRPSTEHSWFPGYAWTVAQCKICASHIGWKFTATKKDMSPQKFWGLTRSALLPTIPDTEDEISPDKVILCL

[2] = biological target: T1, Protein cereblon/Androgen receptor; assay: PROTAC activity at CRBN/AR in human 22Rv1 cells assessed as induction of AR degradation at 20 nM incubated for 2 hrs by Western blot analysis (reference value: 0 %); assay type: cell-based
Target sequence in this assay (P10275 whole entry, looked up): as the sequence (P10275 whole entry, looked up) above
Target sequence in this assay (Q96SW2 whole entry, looked up): as the sequence (Q96SW2 whole entry, looked up) above

[3] = biological target: T1, Protein cereblon/Androgen receptor; assay: PROTAC activity at CRBN/AR in human 22Rv1 cells assessed as induction of AR degradation at 20 nM incubated for 12 hrs by Western blot analysis (reference value: 0 %); assay type: cell-based
Target sequence in this assay (P10275 whole entry, looked up): as the sequence (P10275 whole entry, looked up) above
Target sequence in this assay (Q96SW2 whole entry, looked up): as the sequence (Q96SW2 whole entry, looked up) above

[4] = biological target: T1, Protein cereblon/Androgen receptor; assay: PROTAC activity at CRBN/AR in human 22Rv1 cells assessed as induction of AR degradation at 20 nM incubated for 18 hrs by Western blot analysis (reference value: 0 %); assay type: cell-based
Target sequence in this assay (P10275 whole entry, looked up): as the sequence (P10275 whole entry, looked up) above
Target sequence in this assay (Q96SW2 whole entry, looked up): as the sequence (Q96SW2 whole entry, looked up) above

[5] = system: Protein cereblon/Androgen receptor (Homo sapiens), P10275+Q96SW2 [UNDEFINED MUTATION]; assay: PROTAC activity at CRBN/Androgen receptor splice variant 7 in human 22Rv1 cells assessed as induction of AR-V7 degradation at 20 nM incubated for 1 hrs by Western blot analysis (reference value: 0%); assay type: cell-based
[6] = biological target: T2, Protein cereblon/Eukaryotic peptide chain release factor GTP-binding subunit ERF3A (Homo sapiens, UniProt Q96SW2+P15170); assay: Molecular glue activity at CRBN/GSPT1 in human 22Rv1 cells assessed as induction of GSPT1 degradation at 20 nM incubated for 1 hrs by Western blot analysis (reference value: 0 %); assay type: cell-based
Target sequence in this assay (P15170 whole entry, looked up): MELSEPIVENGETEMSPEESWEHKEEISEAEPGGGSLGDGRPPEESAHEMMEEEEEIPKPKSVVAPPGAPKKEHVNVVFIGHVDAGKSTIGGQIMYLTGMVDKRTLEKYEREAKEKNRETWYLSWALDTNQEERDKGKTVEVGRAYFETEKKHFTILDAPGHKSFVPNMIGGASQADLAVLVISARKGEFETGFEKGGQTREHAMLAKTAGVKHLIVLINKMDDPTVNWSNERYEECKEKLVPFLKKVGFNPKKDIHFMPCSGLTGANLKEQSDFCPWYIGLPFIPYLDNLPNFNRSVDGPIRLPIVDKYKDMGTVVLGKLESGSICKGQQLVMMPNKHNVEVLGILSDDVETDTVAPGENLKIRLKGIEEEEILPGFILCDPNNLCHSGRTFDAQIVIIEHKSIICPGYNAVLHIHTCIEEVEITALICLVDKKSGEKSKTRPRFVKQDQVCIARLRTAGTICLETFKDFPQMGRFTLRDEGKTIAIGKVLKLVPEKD
Target sequence in this assay (Q96SW2 whole entry, looked up): as the sequence (Q96SW2 whole entry, looked up) above

[7] = biological target: T2, Protein cereblon/Eukaryotic peptide chain release factor GTP-binding subunit ERF3A; assay: Molecular glue activity at CRBN/GSPT1 in human 22Rv1 cells assessed as induction of GSPT1 degradation at 20 nM incubated for 18 hrs by Western blot analysis (reference value: 0 %); assay type: cell-based
Target sequence in this assay (P15170 whole entry, looked up): as the sequence (P15170 whole entry, looked up) above
Target sequence in this assay (Q96SW2 whole entry, looked up): as the sequence (Q96SW2 whole entry, looked up) above

[8] = biological target: T2, Protein cereblon/Eukaryotic peptide chain release factor GTP-binding subunit ERF3A; assay: Molecular glue activity at CRBN/GSPT1 in human 22Rv1 cells assessed as induction of GSPT1 degradation at 20 nM incubated for 24 hrs by Western blot analysis (reference value: 0 %); assay type: cell-based
Target sequence in this assay (P15170 whole entry, looked up): as the sequence (P15170 whole entry, looked up) above
Target sequence in this assay (Q96SW2 whole entry, looked up): as the sequence (Q96SW2 whole entry, looked up) above

[9] = biological target: T1, Protein cereblon/Androgen receptor; assay: PROTAC activity at CRBN/AR in human 22Rv1 cells assessed as induction of AR degradation incubated for 24 hrs by Western blot analysis; assay type: cell-based
[10] = biological target: T2, Protein cereblon/Eukaryotic peptide chain release factor GTP-binding subunit ERF3A; assay: Molecular glue activity at CRBN/GSPT1 in human 22Rv1 cells assessed as induction of GSPT1 degradation incubated for 24 hrs by Western blot analysis; assay type: cell-based
[11] = biological target: T1, Protein cereblon/Androgen receptor; assay: PROTAC activity at CRBN/AR in human VCaP cells assessed as induction of AR degradation incubated for 24 hrs by Western blot analysis; assay type: cell-based
[12] = biological target: T2, Protein cereblon/Eukaryotic peptide chain release factor GTP-binding subunit ERF3A; assay: Molecular glue activity at CRBN/GSPT1 in human LNCaP cells assessed as induction of GSPT1 degradation incubated for 24 hrs by Western blot analysis; assay type: cell-based
[13] = system: Protein cereblon/Androgen receptor (Homo sapiens), P10275+Q96SW2 [UNDEFINED MUTATION]; assay: PROTAC activity at CRBN/Androgen receptor splice variant 7 in human VCaP cells assessed as induction of AR-V7 degradation at 20 nM by Western blot analysis; assay type: cell-based; conditions: time 1-36 hrs
[14] = system: Protein cereblon/Androgen receptor (Homo sapiens), P10275+Q96SW2 [UNDEFINED MUTATION]; assay: PROTAC activity at CRBN/Androgen receptor splice variant 7 in human 22Rv1 cells assessed as induction of AR-V7 degradation by measuring maximal efficacy incubated for 24 hrs by Western blot analysis relative to control; assay type: cell-based
[15] = system: Protein cereblon/Androgen receptor (Homo sapiens), P10275+Q96SW2 [UNDEFINED MUTATION]; assay: PROTAC activity at CRBN/Androgen receptor splice variant 7 in human VCaP cells assessed as induction of AR-V7 degradation by measuring maximal efficacy incubated for 24 hrs by Western blot analysis relative to control; assay type: cell-based
[16] = biological target: T2, Protein cereblon/Eukaryotic peptide chain release factor GTP-binding subunit ERF3A; assay: Molecular glue activity at CRBN/GSPT1 in human LNCaP cells assessed as induction of GSPT1 degradation by measuring maximal efficacy incubated for 24 hrs by Western blot analysis relative to control; assay type: cell-based
Target sequence in this assay (P15170 whole entry, looked up): as the sequence (P15170 whole entry, looked up) above
Target sequence in this assay (Q96SW2 whole entry, looked up): as the sequence (Q96SW2 whole entry, looked up) above

[17] = system: CWR22R; assay: Effect on GSPT1 mRNA expression in human 22Rv1 cells at 1 to 10 nM incubated for 24 hrs by RT-PCR analysis; assay type: functional, cell-based; conditions: dose 1-10 nM
[18] = biological target: T1, Protein cereblon/Androgen receptor; assay: PROTAC activity at CRBN/AR in human VCaP cells assessed as induction of AR degradation at 50 nM preincubated with MLN4924 followed by compound addition and measured after 12 hrs by Western blot analysis; assay type: cell-based
Target sequence in this assay (P10275 whole entry, looked up): as the sequence (P10275 whole entry, looked up) above
Target sequence in this assay (Q96SW2 whole entry, looked up): as the sequence (Q96SW2 whole entry, looked up) above

[19] = system: Protein cereblon/Androgen receptor (Homo sapiens), P10275+Q96SW2 [UNDEFINED MUTATION]; assay: PROTAC activity at CRBN/Androgen receptor splice variant 7 in human VCaP cells assessed as induction of AR-V7 degradation at 50 nM preincubated with MLN4924 followed by compound addition and measured after 12 hrs by Western blot analysis; assay type: cell-based
[20] = system: Protein cereblon/Androgen receptor (Homo sapiens), P10275+Q96SW2 [UNDEFINED MUTATION]; assay: PROTAC activity at CRBN/Androgen receptor splice variant 7 in human 22Rv1 cells assessed as induction of AR-V7 degradation at […] preincubated with thalidomide followed by compound addition and measured after 12 hrs by Western blot analysis; assay type: cell-based
[21] = system: 22Rv1; assay: Induction of GSPT1 degradation in human 22Rv1 cells transfected with CRBN siRNA at 30 nM incubated for 24 hrs by Western blot analysis; assay type: cell-based
[22] = biological target: Cereblon/Ikaros (Homo sapiens) (UniProt Q96SW2+Q13422); assay: Molecular glue activity at CRBN/IKZF1 in human 22Rv1 cells assessed as induction of IKZF1 degradation at 1 uM incubated for 6 hrs by Western blot analysis; assay type: cell-based
[23] = system: CWR22R; assay: Downregulation of MT-ATP8 gene expression in human 22Rv1 cells at 3 nM incubated for 24 hrs by Volcano plot analysis; assay type: functional, cell-based
[24] = biological target: T1, Protein cereblon/Androgen receptor; assay: PROTAC activity at CRBN/AR in human LNCaP cells assessed as decrease in FKBP5 mRNA level at 10 to 100 nM incubated for 24 hrs by qRT-PCR analysis; assay type: cell-based; conditions: dose 10-100 nM
Target sequence in this assay (P10275 whole entry, looked up): as the sequence (P10275 whole entry, looked up) above
Target sequence in this assay (Q96SW2 whole entry, looked up): as the sequence (Q96SW2 whole entry, looked up) above

[25] = biological target: T1, Protein cereblon/Androgen receptor; assay: PROTAC activity at CRBN/AR in human 22Rv1 cells assessed as decrease in TMPRSS2 protein level incubated for 24 hrs by Western blot analysis; assay type: cell-based; conditions: dose 1-10 nM
[26] = system: CWR22R; assay: Cell cycle arrest in human 22Rv1 cells assessed as accumulation of cells at G1 phase at 1 nM incubated for 24 hrs by flow cytometric analysis (reference value: 49.7 %); assay type: functional
[27] = system: CWR22R; assay: Induction of apoptosis in human 22Rv1 cells assessed as increase in cleaved caspase-3 expression incubated for 24 hrs by Western blot analysis; assay type: functional, cell-based; conditions: dose 1-30 nM
[28] = system: CWR22R; assay: Induction of apoptosis in human 22Rv1 cells assessed as increase in cleaved PARP expression incubated for 24 hrs by Western blot analysis; assay type: functional, cell-based; conditions: dose 1-30 nM
[29] = Half-life in male ICR mouse at 2 mg/kg, iv by LC-MS/MS analysis; assay type: ADME, organism-based; conditions: in vivo
[30] = Oral bioavailability in male ICR mouse at 10 mg/kg by LC-MS/MS analysis; assay type: ADME, organism-based; conditions: in vivo
[31] = Toxicity in male NOD SCID mouse model xenografted with human LNCaP cells assessed as body weight loss at 20 mg/kg, po administered daily for 26 days; assay type: organism-based; conditions: in vivo, 624 h, time 26 day
[32] = system: Mus musculus; assay: In vivo inhibition of AR transcriptional activity in male NOD SCID mouse model xenografted with human LNCaP cells assessed as reduction in PSA level in tumor at 20 mg/kg, po administered daily for 26 days by ELISA; assay type: functional, organism-based; conditions: time 26.0 day

Sequence of Protein cereblon/Androgen receptor (Homo sapiens), P10275+Q96SW2 [UNDEFINED MUTATION] (P10275 whole entry, looked up, change not shown, canonical isoform): as the sequence (P10275 whole entry, looked up) above
Sequence of Protein cereblon/Androgen receptor (Homo sapiens), P10275+Q96SW2 [UNDEFINED MUTATION] (Q96SW2 whole entry, looked up, change not shown, canonical isoform): as the sequence (Q96SW2 whole entry, looked up) above

For `COc1ccc(C(C)(C)c2cc(Cl)c(OCC3CCN(C(=O)CCCCCNc4ccc5c(c4)C(=O)N(C4CCC(=O)NC4=O)C5=O)CC3)c(C#N)c2)cc1` (stereo unspecified), the Activity [1] was 89.4%, the Activity [2] was 56.3% and the Activity [3] was 56.1%. It also gave an Activity [4] of 84.1%, an Activity [5] of 13.3% and an Activity [6] of 21.8%. The Activity [7] was 98.4%, the Activity [8] was 98.1% and the Activity [9] was “Dose-dependent-effect”. For the same molecule, the DC50 [9] was 3.7 nM, the Activity [10] was “Dose-dependent-effect” and the DC50 [10] was 1.2 nM. The Activity [11] was “Dose-dependent-effect”, the DC50 [11] was 2 nM and the Activity [12] was “Dose-dependent-effect”. The DC50 [12] was 0.9 nM, the Activity [13] was “Time-dependent-effect” and the Emax [14] was 92.6%. For the same molecule, the Emax [15] was 77.9%, the Emax [16] was 96.5% and the Activity [17] was “Minimal_effect”. For the same molecule, the Activity [18] was “inactive”, the Activity [19] was “inactive” and the Activity [20] was “inactive”. The Activity [21] was “inactive”, the Activity [22] was “inactive” and the Activity [23] was “Active”. The Activity [24] was “Active”, the Activity [25] was “Dose-dependent-effect” and the Activity [26] was 50.3%. The Activity [27] was “Dose-dependent-effect”, the Activity [28] was “Dose-dependent-effect” and the half-life [29] was 54 min. The bioavailability [30] was 11.2%, the Activity [31] was “Non-toxic” and the inhibition [32] was “Active; Superior Activity Than Enzalutamide Treatment Group Observed”.
